Measured values published in ChEMBL document CHEMBL5252626, “Design and synthesis of novel GluN2A NMDAR positive allosteric modulators via scaffold hopping strategy as anti-stroke therapeutic agents” (Bioorg Med Chem, 2023).
In brackets after ≈: the same amount, converted by molar mass. Activity calls are given as the source filed them. No cut-off for these calls is given here.

Assays:
[1] = target: Glutamate NMDA receptor; GRIN1/GRIN2B (Homo sapiens) (UniProt Q05586+Q13224); test: Positive allosteric modulation of GluN1/GluN2B receptor (unknown origin) stably expressed in HEK293 cells assessed as glutamate/glycine induced increase in intracellular calcium level at 10 uM incubated for 30 mins followed by addition of glutamate/glycine by Ca2+ influx assay; format: cell-based
Mus musculus [2] = test: Neuroprotective activity in middle cerebral artery occlusion-induced C57BL/6 mouse model assessed as reduction in infarct volume at 2 mg/kg, sc incubated with compound for 2 hrs after reperfusion by TTC staining based assay relative to control; format: functional; design: scale not given: the % may be the effect or the level left
PC-12 [3] = test: Neuroprotective activity against glutamate-induced neurotoxicity in rat PC-12 cells assessed as survival rate at 10 uM by WST-8 assay; format: functional
[4] = target: T1, Glutamate NMDA receptor; GRIN1/GRIN2A (Homo sapiens) (UniProt Q05586+Q12879); test: Positive allosteric modulation of GluN1/GluN2A receptor (unknown origin) stably expressed in HEK293 cells assessed as glutamate/glycine induced increase in intracellular calcium level at 10 uM incubated for 30 mins followed by addition of glutamate/glycine by Ca2+ influx assay; format: cell-based; conditions: filed as positive allosteric modulator
PC-12 [5] = test: Neuroprotective activity against glutamate-induced neurotoxicity in rat PC-12 cells assessed as survival rate at 1 uM by WST-8 assay; format: functional
[6] = Solubility of the compound in water by UV spectophotometry analysis; format: physicochemical
PC-12 [7] = test: Neuroprotective activity against glutamate-induced neurotoxicity in rat PC-12 cells assessed as survival rate at 0.1 uM by WST-8 assay (reference value: 40.8+/-2.0%); format: functional
PC-12 [8] = test: Cytotoxicity in rat PC-12 cells assessed as reduction in cell viability at 10 uM incubated for 24 hrs by CCK-8 method; format: toxicity, cell-based; conditions: pc-12, 24 h
Mus musculus [9] = test: Neuroprotective activity in middle cerebral artery occlusion-induced C57BL/6 mouse model assessed as reduction in infarct volume at 2 mg/kg, sc incubated with compound for 2 hrs after reperfusion by TTC staining based assay; format: functional
[10] = target: T1, Glutamate NMDA receptor; GRIN1/GRIN2A (Homo sapiens); test: Positive allosteric modulation of GluN1/GluN2A receptor (unknown origin) stably expressed in HEK293 cells assessed as ratio of Fmax/F0 fluorescence curve value; format: cell-based; conditions: filed as positive allosteric modulator
[11] = filed as positive allosteric modulator

COc1ccccc1NC(=O)c1c[nH]c2c(Cl)cccc2c1=O
Activity [1, 11]: Active | Activity (Mus musculus [2]): 49% | Activity (PC-12 [3]): 52.8% | Activity [4]: Active | Activity (PC-12 [5]): 64.9% | solubility [6]: 13.7 µM (≈ 4.5 µg/mL) | Activity (PC-12 [7]): 64.3% | Activity (PC-12 [8]): 84.4%

COc1ccccc1NC(=O)C1=Cc2c(OC)cccc2OC1
Activity (PC-12 [3]): 50.9% | Activity (PC-12 [5]): 56.1% | Activity (PC-12 [7]): 58.2% | Activity (PC-12 [8]): 81.8%

CC(=O)Nc1ccc(NC(=O)C2=Cc3ccccc3OC2)cc1
Activity (PC-12 [3]): 57.3% | Activity (PC-12 [5]): 54.1% | Activity (Mus musculus [9]): 93 mm | solubility [6]: 364 µM (≈ 112 µg/mL) | Activity (PC-12 [7]): 62.1% | Activity (PC-12 [8]): 84.7%

CC(=O)c1ccc(NC(=O)c2c[nH]c3ccccc3c2=O)cc1
Activity (PC-12 [3]): 40.2% | Activity (PC-12 [5]): 30.8% | Activity (PC-12 [7]): 30.8% | Activity (PC-12 [8]): 74.6%

COC(=O)c1ccc(NC(=O)C2=Cc3cccc(OC)c3OC2)cc1
Activity (PC-12 [3]): 41.2% | Activity (PC-12 [5]): 57.5% | Activity (PC-12 [7]): 58.7% | Activity (PC-12 [8]): 73.3%

COc1cccc2c(=O)c(C(=O)Nc3cc(O)ccc3C)c[nH]c12
Activity (PC-12 [3]): 56.1% | Activity (PC-12 [5]): 46.4% | Activity (PC-12 [7]): 34.5% | Activity (PC-12 [8]): 85.8%

COc1cccc2c1OCC(C(=O)Nc1cc(Cl)ccc1O)=C2
Activity (PC-12 [3]): 71.3% | Activity (PC-12 [5]): 58.6% | Activity (PC-12 [7]): 61.5% | Activity (PC-12 [8]): 92.6%

COc1cccc(NC(=O)C2=Cc3ccccc3OC2)c1
Activity (PC-12 [3]): 62.6% | Activity (PC-12 [5]): 35.3% | Activity (PC-12 [7]): 34.2% | Activity (PC-12 [8]): 79.1%

COc1ccc(NC(=O)c2c[nH]c3c(Cl)cccc3c2=O)cc1
Activity (PC-12 [3]): 54.3% | Activity (PC-12 [5]): 35.5% | Activity (PC-12 [7]): 33.6% | Activity (PC-12 [8]): 79.9%

COc1ccccc1NC(=O)C1=Cc2ccccc2OC1
Activity (PC-12 [3]): 76.9% | Activity (PC-12 [5]): 36.9% | Activity (PC-12 [7]): 41.2% | Activity (PC-12 [8]): 74.1%

COc1ccc(NC(=O)C2=Cc3ccccc3OC2)cc1
Activity (PC-12 [3]): 61.5% | Activity (PC-12 [5]): 35% | Activity (PC-12 [7]): 43.3% | Activity (PC-12 [8]): 100.3%

COc1cccc(NC(=O)c2c[nH]c3ccccc3c2=O)c1
Activity (PC-12 [3]): 44.5% | Activity (PC-12 [5]): 59.5% | solubility [6]: 454 µM (≈ 133 µg/mL) | Activity (PC-12 [7]): 65.5% | Activity (PC-12 [8]): 100.8%

CC(C(O)c1ccc(O)cc1)N1CCC(Cc2ccccc2)CC1 (stereo not given) [IFENPRODIL]
Activity (PC-12 [3]): 40.3% | Activity (PC-12 [5]): 46.4% | Activity (PC-12 [7]): 41.4% | Activity (PC-12 [8]): 82.3%

Cc1ccc(O)cc1NC(=O)c1c[nH]c2c(Cl)cccc2c1=O
Activity (PC-12 [3]): 41.6% | Activity (PC-12 [5]): 44.7% | solubility [6]: 140 µM (≈ 46 µg/mL) | Activity (PC-12 [7]): 53.6% | Activity (PC-12 [8]): 92.7%

CNC(=O)c1ccccc1NC(=O)C1=Cc2c(Br)cccc2OC1
Activity (PC-12 [3]): 47.9% | Activity (PC-12 [5]): 46.1% | Activity (PC-12 [7]): 48.1% | Activity (PC-12 [8]): 89.2%

COc1ccc(NC(=O)c2c[nH]c3ccccc3c2=O)c(C)c1
Activity (PC-12 [3]): 44% | Activity (PC-12 [5]): 34.2% | Activity (PC-12 [7]): 33.6% | Activity (PC-12 [8]): 62%

COc1cccc2c1OCC(C(=O)Nc1ccc(Br)cn1)=C2
Activity (PC-12 [3]): 43.7% | Activity (PC-12 [5]): 58.2% | Activity (PC-12 [7]): 65.3% | Activity (PC-12 [8]): 75.3%

COc1ccccc1CNC(=O)c1c[nH]c2c(Cl)cccc2c1=O
Activity (PC-12 [3]): 23.2% | Activity (PC-12 [5]): 41.2% | Activity (PC-12 [7]): 44.4% | Activity (PC-12 [8]): 66.1%

O=C(NCc1cccc(Cl)c1)c1cc2c(Br)cccc2oc1=O
Activity (PC-12 [3]): 43.1% | Activity (PC-12 [5]): 45.2% | Activity (PC-12 [7]): 45.4% | Activity (PC-12 [8]): 97%

COc1cccc2c1C=C(C(=O)Nc1ccc(NC(C)=O)cc1)CO2
Activity (PC-12 [3]): 56.9% | Activity (PC-12 [5]): 76.9% | Activity (PC-12 [7]): 59.2% | Activity (PC-12 [8]): 85.5%

CC(=O)Nc1ccc(NC(=O)C2=Cc3c(Br)cccc3OC2)cc1
Activity (PC-12 [3]): 41.7% | Activity (PC-12 [5]): 46.9% | Activity (PC-12 [7]): 46.7% | Activity (PC-12 [8]): 92.9%

COc1cccc2c1OCC(C(=O)Nc1ccc(NC(C)=O)cc1)=C2
Activity (PC-12 [3]): 41.2% | Activity (PC-12 [5]): 54% | Activity (PC-12 [7]): 53.5% | Activity (PC-12 [8]): 67.3%

CC(=O)Nc1ccc(NC(=O)c2c[nH]c3c(Cl)cccc3c2=O)cc1
Activity [1, 11]: Active | Activity (PC-12 [3]): 62.7% | Activity [4]: Active | Activity (PC-12 [5]): 62% | Activity (Mus musculus [9]): 96 mm | solubility [6]: 34.7 µM (≈ 12.3 µg/mL) | Activity (PC-12 [7]): 61.5% | Activity (PC-12 [8]): 91.9%

CCOc1ccc(NC(=O)c2cnc3ccccc3c2O)cc1
Activity (PC-12 [3]): 52.7% | Activity (PC-12 [5]): 28.8% | Activity (PC-12 [7]): 36.4% | Activity (PC-12 [8]): 93.2%

COc1ccccc1NC(=O)c1c[nH]c2ccccc2c1=O
Activity (PC-12 [3]): 31.2% | Activity (PC-12 [5]): 60.1% | Activity (PC-12 [7]): 36.6% | Activity (PC-12 [8]): 63%

N#Cc1ccc(NC(=O)c2c[nH]c3ccccc3c2=O)cc1
Activity (PC-12 [3]): 40.7% | Activity (PC-12 [5]): 39.7% | Activity (PC-12 [7]): 34.7% | Activity (PC-12 [8]): 71.9%

Cc1ccc(O)cc1NC(=O)c1c[nH]c2ccccc2c1=O
Activity [1]: inactive | Activity (Mus musculus [2]): 45% | Activity (PC-12 [3]): 50.2% | Activity [4]: Active | Activity (PC-12 [5]): 52% | solubility [6]: 29.6 µM (≈ 8.71 µg/mL) | Activity (PC-12 [7]): 59.5% | Activity (PC-12 [8]): 63.6% | Ratio [10]: 154

O=C(Nc1cc(Cl)ccc1O)C1=Cc2ccccc2OC1
Activity (PC-12 [3]): 52.5% | Activity (PC-12 [5]): 57.2% | Activity (PC-12 [7]): 67.6% | Activity (PC-12 [8]): 92.2%

COc1ccccc1CNC(=O)c1c[nH]c2ccccc2c1=O
Activity (PC-12 [3]): 17.7% | Activity (PC-12 [5]): 44.4% | Activity (PC-12 [7]): 50.3% | Activity (PC-12 [8]): 28.8%

O=C(Nc1cccnc1)c1c[nH]c2ccccc2c1=O
Activity (PC-12 [3]): 39.3% | Activity (PC-12 [5]): 38.5% | Activity (PC-12 [7]): 42.5% | Activity (PC-12 [8]): 80.9%

O=C(NCc1ccc(Br)cc1)c1cc2c(Br)cccc2oc1=O
Activity (PC-12 [3]): 39.9% | Activity (PC-12 [5]): 40.76% | Activity (PC-12 [7]): 40.87% | Activity (PC-12 [8]): 94.97%

COC(=O)c1ccc(NC(=O)C2=Cc3ccccc3OC2)cc1
Activity (PC-12 [3]): 55.5% | Activity (PC-12 [5]): 62.6% | solubility [6]: 202 µM (≈ 62.5 µg/mL) | Activity (PC-12 [7]): 58.4% | Activity (PC-12 [8]): 91.4%

COC(=O)c1ccc(NC(=O)c2c[nH]c3ccccc3c2=O)cc1
Activity (PC-12 [3]): 49.7% | Activity (PC-12 [5]): 61.3% | Activity (PC-12 [7]): 61.6% | Activity (PC-12 [8]): 73.6%

CNC(=O)c1ccccc1NC(=O)c1c[nH]c2c(Cl)cccc2c1=O
Activity (PC-12 [3]): 42.6% | Activity (PC-12 [5]): 47.3% | Activity (PC-12 [7]): 47.6% | Activity (PC-12 [8]): 93.8%

CCOc1cc(Cl)c(Cl)c(/C=N/NC(=O)c2ccccc2Br)c1O
Activity [1, 11]: Active | Activity (Mus musculus [2]): 31.33% | Activity (PC-12 [3]): 8.6% | Activity [4]: Active | Activity (PC-12 [5]): 53.1% | Activity (Mus musculus [9]): 149 mm | Activity (PC-12 [7]): 44.3% | Activity (PC-12 [8]): 40.2% | Ratio [10]: 152

COc1ccc(NC(=O)c2c[nH]c3ccccc3c2=O)cc1
Activity (PC-12 [3]): 53.1% | Activity (PC-12 [5]): 69.8% | Activity (PC-12 [7]): 71% | Activity (PC-12 [8]): 81.1%

CC(=O)Nc1ccc(NC(=O)c2c[nH]c3ccccc3c2=O)cc1
Activity (PC-12 [3]): 65.4% | Activity (PC-12 [5]): 66.6% | solubility [6]: < 6.2 µM | Activity (PC-12 [7]): 57.2% | Activity (PC-12 [8]): 101.5%

COc1cccc(OC)c1NC(=O)C1=Cc2c(Br)cccc2OC1
Activity (PC-12 [3]): 52.8% | Activity (PC-12 [5]): 46.4% | Activity (PC-12 [7]): 45.2% | Activity (PC-12 [8]): 92.9%

CNC(=O)c1ccccc1NC(=O)c1c[nH]c2ccccc2c1=O
Activity (PC-12 [3]): 53.7% | Activity (PC-12 [5]): 55.9% | solubility [6]: 62.3 µM (≈ 20 µg/mL) | Activity (PC-12 [7]): 56.4% | Activity (PC-12 [8]): 90.6%

COc1cccc2c1C=C(C(=O)Nc1cc(Cl)ccc1O)CO2
Activity (PC-12 [3]): 64.8% | Activity (PC-12 [5]): 58.5% | Activity (PC-12 [7]): 51.2% | Activity (PC-12 [8]): 95%
